Assay results published in PubChem BioAssay (NCI).
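All cell lines were grown in 96-well plates and treated with compound for 48 hours. GI50 is the concentration that inhibits growth by half. TGI marks complete inhibition of growth.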

Legend:
Test in all cases: NCI-60 cell line screen, 48 h
786-0 renal = test system: 786-0 renal
A549 NSCLC = test system: A549 NSCLC
ACHN renal = test system: ACHN renal
CAKI-1 renal = test system: CAKI-1 renal
CCRF-CEM leukemia = test system: CCRF-CEM leukemia
COLO 205 colon = test system: COLO 205 colon
DU-145 prostate = test system: DU-145 prostate
EKVX NSCLC = test system: EKVX NSCLC
HCC-2998 colon = test system: HCC-2998 colon
HCT-116 colon = test system: HCT-116 colon
HCT-15 colon = test system: HCT-15 colon
HL-60(TB) leukemia = test system: HL-60(TB) leukemia
HOP-62 NSCLC = test system: HOP-62 NSCLC
HOP-92 NSCLC = test system: HOP-92 NSCLC
HT29 colon = test system: HT29 colon
K-562 leukemia = test system: K-562 leukemia
KM12 colon = test system: KM12 colon
LOX IMVI melanoma = test system: LOX IMVI melanoma
M14 melanoma = test system: M14 melanoma
MDA-MB-231 breast = test system: MDA-MB-231 breast
MDA-MB-435 = test system: MDA-MB-435
MOLT-4 leukemia = test system: MOLT-4 leukemia
NCI-H226 lung = test system: NCI-H226 lung
NCI-H23 lung = test system: NCI-H23 lung
NCI-H460 lung = test system: NCI-H460 lung
NCI-H522 lung = test system: NCI-H522 lung
NCI/ADR-RES ovarian = test system: NCI/ADR-RES ovarian
OVCAR-3 ovarian = test system: OVCAR-3 ovarian
OVCAR-4 ovarian = test system: OVCAR-4 ovarian
OVCAR-5 ovarian = test system: OVCAR-5 ovarian
OVCAR-8 ovarian = test system: OVCAR-8 ovarian
PC-3 prostate = test system: PC-3 prostate
RXF 393 renal = test system: RXF 393 renal
SF-268 CNS = test system: SF-268 CNS
SF-295 CNS = test system: SF-295 CNS
SK-MEL-2 melanoma = test system: SK-MEL-2 melanoma
SK-MEL-28 melanoma = test system: SK-MEL-28 melanoma
SK-MEL-5 melanoma = test system: SK-MEL-5 melanoma
SK-OV-3 ovarian = test system: SK-OV-3 ovarian
SN12C renal = test system: SN12C renal
SNB-19 CNS = test system: SNB-19 CNS
SR leukemia = test system: SR leukemia
SW-620 colon = test system: SW-620 colon
T-47D breast = test system: T-47D breast
TK-10 renal = test system: TK-10 renal
U251 CNS = test system: U251 CNS
UACC-257 melanoma = test system: UACC-257 melanoma
UACC-62 melanoma = test system: UACC-62 melanoma
UO-31 renal = test system: UO-31 renal

## CCCCCCCCCCCCN=C(N)c1ccc(N2CCN(c3ccc(C(N)=NCCCCCCCCCCCC)cc3)CC2)cc1
786-0 renal
  GI50: 6.23 µM
  TGI: 15.6 µM
A549 NSCLC
  GI50: 11.1 µM
  TGI: 30.5 µM
ACHN renal
  GI50: 20.7 µM
  TGI: > 50 µM
CAKI-1 renal
  GI50: 32.3 µM
  TGI: > 50 µM
CCRF-CEM leukemia
  GI50: 1.56 µM
  TGI: 10.9 µM
COLO 205 colon
  GI50: 11.6 µM
  TGI: 24.4 µM
DU-145 prostate
  GI50: 3.57 µM
  TGI: 14.3 µM
EKVX NSCLC
  GI50: 9.76 µM
  TGI: 20.5 µM
HCC-2998 colon
  GI50: 8.67 µM
  TGI: 17 µM
HCT-116 colon
  GI50: 6.9 µM
  TGI: 13.8 µM
HCT-15 colon
  GI50: 35 µM
  TGI: > 50 µM
HL-60(TB) leukemia
  GI50: 2.15 µM
  TGI: > 50 µM
HOP-62 NSCLC
  GI50: 6.96 µM
  TGI: 14.6 µM
HOP-92 NSCLC
  GI50: 0.614 µM
  TGI: 2.86 µM
HT29 colon
  GI50: 5.68 µM
  TGI: 25.6 µM
K-562 leukemia
  GI50: 6.82 µM
  TGI: > 50 µM
KM12 colon
  GI50: 11.7 µM
  TGI: 25.1 µM
LOX IMVI melanoma
  GI50: 12 µM
  TGI: 23 µM
M14 melanoma
  GI50: 7.82 µM
  TGI: 16.4 µM
MDA-MB-231 breast
  GI50: 10.3 µM
  TGI: 20 µM
MDA-MB-435
  GI50: 9.4 µM
  TGI: 19.4 µM
MOLT-4 leukemia
  GI50: 4.4 µM
  TGI: > 50 µM
NCI-H226 lung
  GI50: 12.9 µM
  TGI: 29.9 µM
NCI-H23 lung
  GI50: 6.2 µM
  TGI: 15.1 µM
NCI-H460 lung
  GI50: 13.8 µM
  TGI: > 50 µM
NCI-H522 lung
  GI50: 3.42 µM
  TGI: 31.2 µM
NCI/ADR-RES ovarian
  GI50: 33.3 µM
  TGI: > 50 µM
OVCAR-3 ovarian
  GI50: 8.66 µM
  TGI: 20.7 µM
OVCAR-4 ovarian
  GI50: 8.88 µM
  TGI: 20.9 µM
OVCAR-5 ovarian
  GI50: 7.16 µM
  TGI: 14.3 µM
OVCAR-8 ovarian
  GI50: 11.4 µM
  TGI: 40.1 µM
PC-3 prostate
  GI50: 9.02 µM
  TGI: 20.2 µM
RXF 393 renal
  GI50: 9.54 µM
  TGI: 37.6 µM
SF-268 CNS
  GI50: 9.84 µM
  TGI: 21.1 µM
SF-295 CNS
  GI50: 7.66 µM
  TGI: 18.1 µM
SK-MEL-2 melanoma
  GI50: 17.5 µM
  TGI: > 50 µM
SK-MEL-28 melanoma
  GI50: 13.3 µM
  TGI: 26.9 µM
SK-MEL-5 melanoma
  GI50: 10.5 µM
  TGI: 21.1 µM
SK-OV-3 ovarian
  GI50: 19.5 µM
  TGI: 34.1 µM
SN12C renal
  GI50: 8.99 µM
  TGI: 18.7 µM
SNB-19 CNS
  GI50: 11 µM
  TGI: 20.5 µM
SR leukemia
  GI50: 3.8 µM
  TGI: > 50 µM
SW-620 colon
  GI50: 9.31 µM
  TGI: 28.1 µM
T-47D breast
  GI50: 10.6 µM
  TGI: 21.3 µM
TK-10 renal
  GI50: 13.2 µM
  TGI: > 50 µM
U251 CNS
  GI50: 11.3 µM
  TGI: 24.9 µM
UACC-257 melanoma
  GI50: 26.1 µM
  TGI: > 50 µM
UACC-62 melanoma
  GI50: 10.5 µM
  TGI: 21.5 µM
UO-31 renal
  GI50: 22.6 µM
  TGI: > 50 µM
